According to patent US20250082656A1, “DOSAGE REGIMENS FOR TREATMENT OF DENGUE INFECTION” (Atea Pharmaceuticals, Inc., priority 2022, published 2025):

Legend:
[1] = In vivo formation of AT-9010 in PBMCs, rats; set-up: species or system SD rats; conditions: single oral dose 300 mg/kg, 24 h
Protocol: Monkeys were given an oral dose of Compound 2 (AT-752) equivalent to Compound 1 (AT-281) at 55 mg/kg and blood collected at 12, 24 and 48 h. […] Mouse PBMCs were pooled from 3 animals per time point; Rat and monkey data expressed as mean+/−SD (n=2-3 per time point). […] The experimental procedure is provided in Example 15.
Male naïve SD rats (Beijing Vital River Laboratory Animals Co. Ltd., China) were administered a dose of AT-752 at 300 mg/kg in 40% PEG400, 10% solutol HS15, 50% 100 mM citrate buffer, pH 4.5 (v/v) by oral gavage. Blood samples (n=4) were collected at 1, 2, 4, 8, 12 and 24 h post-dose, plasma separated and stored at −70° C. […] For PBMCs, nine male naïve SD rats were administered a dose of Compound 2 (AT-752) (at a Compound 1 (AT-281) equivalent dose of 300 mg/kg) by oral gavage.
Pharmacokinetic measurements for FIGS. 11, 12, 13, 14, and 15 were analyzed using LC-MS/MS according to the protocol described herein. Plasma samples were prepared for MS analysis by adding internal standards and extracting with 20 volumes chilled ACN. After vortex (800 rpm for 10 min) and centrifugation (4,000 rpm, 15 min, 4° C.), the supernatants (25 μL) were diluted with an equal volume of H2O, mixed and spun again. […]

[2] = 10 μM Compound 1 for 6 h, peak at 10 h after initiation of exposure
[3] = biological target: human cellular DNA-dependent DNA polymerase β (Homo sapiens, UniProt P06746); conditions: previously shown (Good et al.); read-out: estimated IC50; cited from earlier work
DENV2 NS5 = DENV2 NS5 (Dengue virus type 2, UniProt P14340); test: Thermal shift assay, DENV2 NS5; conditions: read-out: ΔTM
DENV2 RdRp domain = DENV2 RdRp domain (Dengue virus type 2, UniProt P14340); test: Thermal shift assay, DENV2 RdRp domain; conditions: read-out: ΔTM
Dengue-2 (DENV-2) = test: Neutral red assay of virus-induced CPE, DENV-2; assay type: cell-based; conditions: DENV2, DENV-2 New Guinea C (NGC), Huh-7, neutral red (NR) assay
Adenovirus = test: Antiviral specificity panel, Adenovirus; assay type: cell-based; conditions: unidentified adenovirus; DNA virus, Vero
[4] = Cytotoxicity in H1-HeLa cells; assay type: cell-based; conditions: human, Table 2, H1-HeLa
Protocol: To assess the antiviral specificity of Compound 1 (AT-281), serial dilutions were incubated with various host cell lines infected with a panel of DNA and RNA viruses other than flaviviruses. The activity of Compound 1 (AT-281) was measured in infected cells using the neutral red assay to determine the effective concentration required to inhibit viral replication 50% (EC50) (described in Example 3) and the threshold concentration required to obtain a perceptible effect on 50% of the cells incubated without virus (CC50). Compound 1 (AT-281) had no activity against the DNA viruses tested and was only weakly or not active against several RNA viruses (Table 2).

DENV-4 = test: microbe, parasite or virus in culture; conditions: Dengue virus, DENV4, Huh-7

Compound | concentration of AT-9010 in PBMCs [1] [pmol/10^6 cells] | mean peak concentration of AT-9010 in PBMCs [2] [pmol/10^6 cells] | IC50 [3] [µM] | ΔTm at 100 µM (DENV2 NS5) [°C] | ΔTm at 100 µM (DENV2 RdRp domain) [°C] | EC50 (Dengue-2 (DENV-2)) [µM] | EC50 (Adenovirus) [µM] | CC50 [4] [µM] | SI (flaviviruses; DENV-2 NGC Huh-7, DENV2 clinical isolate PBMC and BHK-21, DENV-3 H87 Huh-7, in each case) | CC50 (flaviviruses; read-out: CC50 (concentration required to kill 50% of cells exposed to drug only), exceeded the highest concentration tested) [µM] | EC50 (DENV-4) [µM]
C[C@@]1(F)[C@H](O)[C@@H](COP(=O)(O)OP(=O)(O)OP(=O)(O)O)O[C@H]1n1cnc2c(=O)[nH]c(N)nc21 [Compound 5] | 0.439±0.218 | 1.88±0.01 | > 100 | 6 ± 0.1 | 3.8 ± 0.1 | – | – | – | – | – | –
CNc1nc(N)nc2c1ncn2[C@@H]1O[C@H](CO[P@](=O)(N[C@@H](C)C(=O)OC(C)C)Oc2ccccc2)[C@@H](O)[C@@]1(C)F [Compound 1, isopropyl ((R)-(((2R,3R,4R,5R)-5-(2-amino-6-(methylamino)-9H-purin-9-yl)-4-fluoro-3-hydroxy-4-methyltetrahydrofuran-2-yl)methoxy)(phenoxy)phosphoryl)-L-alaninate] | – | – | – | – | – | 0.48 | > 100 | > 100 | > 210 | 85 to 170 | 0.57
